Measurements: patent US20030171329A1, “Stable compositions comprising tezacitabine” (priority 2002, published 2003)
Like-named read-outs stand apart in the source and are kept apart here.

Legend:
[1] = Protocol: In this study the stabilty of FMdC glutamate and glycine buffers at pH 8.5 to 9.5 was evaluated at various storage conditions (5°, 25°, 35°, 45°, and 55° C.). FMdC solutions were made up at 1 mg/mL in 7.1 mg/mL monosodium glutamate monohydrate (38 mM) or 2.8 mg/mL glycine (37 mM) and pH adjusted to target with sodium hydroxide. Solution samples were placed in stoppered glass vials and stored at the various temperatures. […] Detention was by UV at 268 nm.
The higher-temperature data can be evaluated further by Arrhenius analysis to predict shelf lives at lower temperatures. First-order rate constants are determined by fitting the concentration and time data to an equation of the form C(t)=C(0)·exp (−k·t), where C(t) is the concentration at time t, C(0) is the concentration at time 0, t is the time, and k is the first-order rate constant. The rate constants are in turn fitted to an equation of the form k (T)=A·exp (−Ea/RT), where k(T) is the rate constant at temperature T, Ea is the energy of activation, R is the gas constant, T is the absolute temperature (in ° K), and A is a constant.

[2] = system: human and rodent tumors; settings: tumors of lung, colon, breast, prostate, pancreas, leukemias and lymphomas; cited from earlier work
[3] = Glutamate pH 8.5 buffer, 5° C., 24 weeks
[4] = Glutamate pH 8.5 buffer, 25° C., 0 weeks
[5] = Glutamate pH 8.5 buffer, 25° C., 4 weeks
[6] = Glutamate pH 8.5 buffer, 25° C., 16 weeks
[7] = Glutamate pH 8.5 buffer, 25° C., 24 weeks
[8] = Glutamate pH 8.5 buffer, 35° C., 0 weeks
[9] = Glutamate pH 8.5 buffer, 35° C., 4 weeks
[10] = Glutamate pH 8.5 buffer, 35° C., 16 weeks
[11] = Glutamate pH 8.5 buffer, 35° C., 24 weeks
[12] = Glutamate pH 8.5 buffer, 45° C., 0 weeks
[13] = Glutamate pH 8.5 buffer, 45° C., 4 weeks
[14] = Glutamate pH 9.0 buffer, 5° C., 24 weeks
[15] = Glutamate pH 9.0 buffer, 25° C., 0 weeks
[16] = Glutamate pH 9.0 buffer, 25° C., 4 weeks
[17] = Glutamate pH 9.0 buffer, 25° C., 16 weeks
[18] = Glutamate pH 9.0 buffer, 25° C., 24 weeks
[19] = Glutamate pH 9.0 buffer, 35° C., 0 weeks
[20] = Glutamate pH 9.0 buffer, 35° C., 4 weeks
[21] = Glutamate pH 9.0 buffer, 35° C., 16 weeks
[22] = Glutamate pH 9.0 buffer, 35° C., 24 weeks
[23] = Glutamate pH 9.0 buffer, 45° C., 0 weeks
[24] = Glutamate pH 9.0 buffer, 45° C., 4 weeks
[25] = Glutamate pH 9.5 buffer, 5° C., 24 weeks
[26] = Glutamate pH 9.5 buffer, 25° C., 0 weeks
[27] = Glutamate pH 9.5 buffer, 25° C., 4 weeks
[28] = Glutamate pH 9.5 buffer, 25° C., 16 weeks
[29] = Glutamate pH 9.5 buffer, 25° C., 24 weeks
[30] = Glutamate pH 9.5 buffer, 35° C., 0 weeks
[31] = Glutamate pH 9.5 buffer, 35° C., 4 weeks
[32] = Glutamate pH 9.5 buffer, 35° C., 16 weeks
[33] = Glutamate pH 9.5 buffer, 35° C., 24 weeks
[34] = Glutamate pH 9.5 buffer, 45° C., 0 weeks
[35] = Glutamate pH 9.5 buffer, 45° C., 4 weeks
[36] = Glycine pH 9.0 buffer, 5° C., 24 weeks
[37] = Glycine pH 9.0 buffer, 25° C., 0 weeks
[38] = Glycine pH 9.0 buffer, 25° C., 4 weeks
[39] = Glycine pH 9.0 buffer, 25° C., 16 weeks
[40] = Glycine pH 9.0 buffer, 25° C., 24 weeks
[41] = Glycine pH 9.0 buffer, 35° C., 0 weeks
[42] = Glycine pH 9.0 buffer, 35° C., 16 weeks
[43] = Glycine pH 9.0 buffer, 35° C., 24 weeks
[44] = Glycine pH 9.0 buffer, 45° C., 0 weeks

Compound: Nc1ccn([C@@H]2O[C@H](CO)[C@@H](O)/C2=C\F)c(=O)n1 [FMdC, (E)-2′-deoxy-2′-(fluoromethylene)cytidine]
- stability in words ([1]; 1 mg/mL): stable for almost 6 months
- predicted first-order rate constant of degradation ([1]; 1 mg/mL, pH 9): 3.0·10^−4 week^−1
- FMdC ([1]; Glutamate pH 8.5 buffer, 5° C., 12 weeks): 1.00 mg/mL
- pH ([1]; Glutamate pH 8.5 buffer, 5° C., 16 weeks): 8.63
- FMdC [1, 3]: 1.00 mg/mL
- pH [1, 3]: 8.66
- FMdC [1, 4]: 1.00 mg/mL
- pH [1, 4]: 8.50
- FMdC [1, 5]: 1.00 mg/mL
- pH [1, 5]: 8.55
- FMdC [1, 6]: 0.99 mg/mL
- pH [1, 6]: 7.93
- FMdC [1, 7]: 0.99 mg/mL
- pH [1, 7]: 8.64
- FMdC [1, 8]: 1.00 mg/mL
- pH [1, 8]: 8.50
- FMdC [1, 9]: 1.00 mg/mL
- pH [1, 9]: 8.55
- FMdC [1, 10]: 0.97 mg/mL
- pH [1, 10]: 8.59
- FMdC [1, 11]: 0.95 mg/mL
- pH [1, 11]: 8.58
- FMdC [1, 12]: 1.00 mg/mL
- pH [1, 12]: 8.50
- FMdC [1, 13]: 0.98 mg/mL
- pH [1, 13]: 8.56
- FMdC ([1]; Glutamate pH 8.5 buffer, 45° C., 16 weeks): 0.85 mg/mL
- FMdC ([1]; Glutamate pH 8.5 buffer, 45° C., 24 weeks): 0.47 mg/mL
- FMdC ([1]; Glutamate pH 8.5 buffer, 55° C., 0 weeks): 1.00 mg/mL
- FMdC ([1]; Glutamate pH 8.5 buffer, 55° C., 2 weeks): 0.91 mg/mL
- FMdC ([1]; Glutamate pH 8.5 buffer, 55° C., 4 weeks): 0.72 mg/mL
- FMdC ([1]; Glutamate pH 8.5 buffer, 55° C., 8 weeks): 0.03 mg/mL
- FMdC ([1]; Glutamate pH 9.0 buffer, 5° C., 12 weeks): 1.00 mg/mL
- pH ([1]; Glutamate pH 9.0 buffer, 5° C., 16 weeks): 9.10
- FMdC [1, 14]: 1.00 mg/mL
- pH [1, 14]: 9.05
- FMdC [1, 15]: 1.01 mg/mL
- pH [1, 15]: 9.00
- FMdC [1, 16]: 1.01 mg/mL
- pH [1, 16]: 9.07
- FMdC [1, 17]: 0.99 mg/mL
- pH [1, 17]: 8.80
- FMdC [1, 18]: 0.99 mg/mL
- pH [1, 18]: 9.09
- FMdC [1, 19]: 1.01 mg/mL
- pH [1, 19]: 9.00
- FMdC [1, 20]: 1.01 mg/mL
- pH [1, 20]: 9.06
- FMdC [1, 21]: 0.98 mg/mL
- pH [1, 21]: 9.08
- FMdC [1, 22]: 0.98 mg/mL
- pH [1, 22]: 9.08
- FMdC [1, 23]: 1.01 mg/mL
- pH [1, 23]: 9.00
- FMdC [1, 24]: 0.99 mg/mL
- pH [1, 24]: 9.04
- FMdC ([1]; Glutamate pH 9.0 buffer, 45° C., 16 weeks): 0.92 mg/mL
- FMdC ([1]; Glutamate pH 9.0 buffer, 45° C., 24 weeks): 0.88 mg/mL
- FMdC ([1]; Glutamate pH 9.0 buffer, 55° C., 0 weeks): 1.01 mg/mL
- FMdC ([1]; Glutamate pH 9.0 buffer, 55° C., 2 weeks): 0.96 mg/mL
- FMdC ([1]; Glutamate pH 9.0 buffer, 55° C., 4 weeks): 0.91 mg/mL
- FMdC ([1]; Glutamate pH 9.0 buffer, 55° C., 8 weeks): 0.78 mg/mL
- FMdC ([1]; Glutamate pH 9.5 buffer, 5° C., 12 weeks): 1.00 mglmL
- pH ([1]; Glutamate pH 9.5 buffer, 5° C., 16 weeks): 9.54
- FMdC [1, 25]: 1.01 mglmL
- pH [1, 25]: 9.57
- FMdC [1, 26]: 1.00 mglmL
- pH [1, 26]: 9.50
- FMdC [1, 27]: 1.00 mglmL
- pH [1, 27]: 9.53
- FMdC [1, 28]: 1.00 mglmL
- pH [1, 28]: 9.55
- FMdC [1, 29]: 0.99 mglmL
- pH [1, 29]: 9.57
- FMdC [1, 30]: 1.00 mglmL
- pH [1, 30]: 9.50
- FMdC [1, 31]: 1.00 mglmL
- pH [1, 31]: 9.54
- FMdC [1, 32]: 0.98 mglmL
- pH [1, 32]: 9.59
- FMdC [1, 33]: 0.97 mglmL
- pH [1, 33]: 9.62
- FMdC [1, 34]: 1.00 mglmL
- pH [1, 34]: 9.50
- FMdC [1, 35]: 0.99 mglmL
- pH [1, 35]: 9.56
- FMdC ([1]; Glutamate pH 9.5 buffer, 45° C., 16 weeks): 0.92 mglmL
- FMdC ([1]; Glutamate pH 9.5 buffer, 45° C., 24 weeks): 0.89 mglmL
- FMdC ([1]; Glutamate pH 9.5 buffer, 55° C., 0 weeks): 1.00 mglmL
- FMdC ([1]; Glutamate pH 9.5 buffer, 55° C., 2 weeks): 0.97 mglmL
- FMdC ([1]; Glutamate pH 9.5 buffer, 55° C., 4 weeks): 0.93 mglmL
- FMdC ([1]; Glutamate pH 9.5 buffer, 55° C., 8 weeks): 0.82 mglmL
- FMdC ([1]; Glycine pH 9.0 buffer, 5° C., 12 weeks): 1.01 mg/mL
- pH ([1]; Glycine pH 9.0 buffer, 5° C., 16 weeks): 9.30
- FMdC [1, 36]: 1.00 mg/mL
- pH [1, 36]: 9.33
- FMdC [1, 37]: 1.00 mg/mL
- pH [1, 37]: 9.00
- FMdC [1, 38]: 1.01 mg/mL
- pH [1, 38]: 9.33
- FMdC [1, 39]: 1.00 mg/mL
- pH [1, 39]: 9.30
- FMdC [1, 40]: 0.99 mg/mL
- pH [1, 40]: 9.32
- FMdC [1, 41]: 1.00 mg/mL
- pH [1, 41]: 9.00
- pH ([1]; Glycine pH 9.0 buffer, 35° C., 4 weeks): 9.32
- FMdC [1, 42]: 0.98 mg/mL
- pH [1, 42]: 9.32
- FMdC [1, 43]: 0.97 mg/mL
- pH [1, 43]: 9.31
- FMdC [1, 44]: 1.00 mg/mL
- pH [1, 44]: 9.00
- FMdC ([1]; Glycine pH 9.0 buffer, 45° C., 4 weeks): 0.99 mg/mL
- FMdC ([1]; Glycine pH 9.0 buffer, 45° C., 16 weeks): 0.92 mg/mL
- FMdC ([1]; Glycine pH 9.0 buffer, 45° C., 24 weeks): 0.88 mg/mL
- FMdC ([1]; Glycine pH 9.0 buffer, 55° C., 0 weeks): 1.00 mg/mL
- FMdC ([1]; Glycine pH 9.0 buffer, 55° C., 4 weeks): 0.91 mg/mL
- shelf-life (time at which 5% degradation would be expected) ([1]; pH 9): several years
- antitumor activity in animal studies [2]: exhibited activity
